Test results published in patent publication US6894046B2, “IL-5 inhibiting 6-azauracil derivatives” (Janssen Pharmaceutica N.V., priority 1998, dated 2005).

Test system: IL-5 production in human blood
Assay: In vitro inhibition of IL-5 production in human blood (phytohemagglutinin-stimulated whole blood, ELISA)
Type: cell-based
Conditions: test dose 1×10^−6 M, phytohemagglutinin 2 μg/ml, 48 hours; for inhibition at 1 µM: read-out: % inh. (percentage inhibition of IL-5 production)
Description: EXAMPLE C.1: IN VITRO INHIBITION OF IL-5 PRODUCTION IN HUMAN BLOOD
Peripheral blood from healthy male donors was drawn into heparinized syringes (12.5 U heparin/ml). Blood samples were three-fold diluted in RMPI 1640 medium (Life Technologies, Belgium) supplemented with 2 mM L-glutamine, 100 U/ml penicillin and 100 μg/ml streptomycin, and 300 μl fractions were distributed in 24-well multidisc plates. Blood samples were preincubated (60 minutes at 37° C.) in a humidified 6% CO2-atmosphere with 100 μl of drug solvent (final concentration 0.02% dimethylsulfoxide in RPMI 1640) or with 100 μl of an appropriate dose of test compound before being stimulated by the addition of 100 μl of phytohemagglutinin HA17 (Murex, UK) at a final concentration of 2 μg/ml. After 48 hours, cell-free supernatant fluids were collected by centrifugation and stored at −70° C. until tested for the presence of IL-5.
IL-5 measurements were conducted as described in Van Wauwe et al. (1996, Inflamm Res, 45, 357-363) on page 358 using ELISA.
Table 6 lists the percentage inhibition of IL-5 production (column “% inh”) at a test dose of 1×10^−6 M, or in case the percentage inhibition is marked with an “*” 1×10^−5 M, for the compounds of the present invention.

| Compound | % inh. (percentage inhibition of IL-5 production) | inhibition at 1 µM |
| --- | --- | --- |
| CC(C)(c1nc(-c2ccc(C#N)s2)cs1)c1c(Cl)cc(-n2ncc(=O)[nH]c2=O)cc1Cl [Compound 78] | 79% |  |
| CC(C)(c1noc(-c2cccc(CO)c2)n1)c1c(Cl)cc(-n2ncc(=O)[nH]c2=O)cc1Cl [Compound 127] | 67% |  |
| Cc1ccccc1-c1nc(C(C)(C)c2c(Cl)cc(-n3ncc(=O)[nH]c3=O)cc2Cl)no1 [Compound 87, 2-[3,5-dichloro-4-[1-methyl-1-[5-(2-methylphenyl)-1,2,4-oxadiazol-3-yl]ethyl]phenyl]-1,2,4-triazine-3,5(2H,4H)-dione] |  | 89% |
| CC(C)(c1nc(-c2ccc(Br)cc2)cs1)c1c(Cl)cc(-n2ncc(=O)[nH]c2=O)cc1Cl [Compound 12] | 70% |  |
| Cc1ccccc1-c1nc(C(C)(C)c2c(Cl)cc(-n3ncc(=O)[nH]c3=O)cc2Cl)sc1-c1ccccc1 [Compound 38] | 93% |  |
| CC(C)(c1nc(-c2ccccc2)c(C(=O)O)s1)c1c(Cl)cc(-n2ncc(=O)[nH]c2=O)cc1Cl [Compound 117] | −7% |  |
| (α+β)-2-[3,5-dichloro-4-[1-[5-[3-[[tetrahydro-3,4,5-trihydroxy-6-hydroxymethyl)-2H-pyran-2H-pyran-2-yl]amino]phenyl]-4-phenyl-2-thiazolyl]-1-methylethyl]phenyl]-1,2,4-triazine-3,5(2H,4H)-dione 2-propanolate(1:1) [Compound 64] | 86% |  |
| CC(C)(c1nc(-c2ccccc2Cl)c(-c2cccc(CO)c2)s1)c1c(Cl)cc(-n2ncc(=O)[nH]c2=O)cc1Cl [Compound 59, 2-[3,5-dichloro-4-[1-[4-(2-chlorophenyl)-5-[3-(hydroxymethyl)phenyl]-2-thiazolyl]-1-methylethyl]phenyl]-1,2,4-triazine-3,5(2H,4H)-dione] |  | 82% |
| CC(C)(c1noc(-c2ccccc2F)n1)c1c(Cl)cc(-n2ncc(=O)[nH]c2=O)cc1Cl [Compound 86] | 88% |  |
| CC(C)(c1noc(-c2ccccc2Cl)n1)c1c(Cl)cc(-n2ncc(=O)[nH]c2=O)cc1Cl [Compound 89] | 84% |  |
| CC(C)(c1nc(-c2ccccc2)cs1)c1c(Cl)cc(-n2ncc(=O)[nH]c2=O)cc1Cl [Compound 1, 2-[3,5-dichloro-4-[1-methyl-1-(4-phenyl-2-thiazolyl)ethyl]phenyl]-1,2,4-triazine-3,5(2H,4H)-dione] |  | 90.5% |
| Cc1ncccc1-c1nc(C(C)(C)c2c(Cl)cc(-n3ncc(=O)[nH]c3=O)cc2Cl)no1 [Compound 150, 2-[3,5-dichloro-4-[1-methyl-1-[5-(2-methyl-3-pyridinyl)-1,2,4-oxadiazol-3-yl]ethyl]phenyl]-1,2,4-triazine-3,5(2H,4H)-dione] |  | 73% |
| Cc1ccc(-c2csc(C(C)(C)c3c(Cl)cc(-n4ncc(=O)[nH]c4=O)cc3Cl)n2)s1 [Compound 76] | 75% |  |
| CC(C)(c1nc(-c2ccccc2)c(C(O)c2ccccc2)s1)c1c(Cl)cc(-n2ncc(=O)[nH]c2=O)cc1Cl (racemic) [Compound 29, (±)-2-[3,5-dichloro-4-[1-[5-(hydroxyphenylmethyl)4-phenyl-2-thiazolyl]-1-methyl-ethyl]phenyl]-1,2,4-triazin-3,5(2H,4H)-dione] |  | 71% |
| CC(C)(c1nc(-c2cccc(Cl)c2)c(-c2ccccc2)s1)c1c(Cl)cc(-n2ncc(=O)[nH]c2=O)cc1Cl [Compound 37] | 92% |  |
| Cc1c(F)cccc1-c1nc(C(C)(C)c2c(Cl)cc(-n3ncc(=O)[nH]c3=O)cc2Cl)no1 [Compound 144] | 90% |  |
| CC(C)(c1nc(-c2ccccc2Cl)cs1)c1c(Cl)cc(-n2ncc(=O)[nH]c2=O)cc1Cl [Compound 4] | 94% |  |
| CC(C)(c1nc(-c2ccc(F)cc2F)cs1)c1c(Cl)cc(-n2ncc(=O)[nH]c2=O)cc1Cl [Compound 18] | 91% |  |
| CCOC(=O)c1sc(C(C)(C)c2c(Cl)cc(-n3ncc(=O)[nH]c3=O)cc2Cl)nc1-c1ccccc1 [Compound 6] | 94% |  |
| CC(C)(c1noc(-c2ccccc2)n1)c1c(Cl)cc(-n2ncc(=O)[nH]c2=O)cc1Cl [Compound 88, 2-[3,5-dichloro-4-[1-methyl-1-(5-phenyl-1,2,4-oxadiazol-3-yl)ethyl]phenyl]-1,2,4-triazine-3,5(2H,4H)-dione] |  | 94% |
| CC(C)(c1nc(-c2cccs2)c(C(=O)O)s1)c1c(Cl)cc(-n2ncc(=O)[nH]c2=O)cc1Cl [Compound 120] | 8% |  |
| CC(=O)N1CCC(c2sc(C(C)(C)c3c(Cl)cc(-n4ncc(=O)[nH]c4=O)cc3Cl)nc2-c2ccccc2)CC1 [Compound 39] | 72% |  |

| Compound | % inh. (percentage inhibition of IL-5 production) | inhibition at 1 µM |
| --- | --- | --- |
| COC(=O)c1cccc(-c2nc(C(C)(C)c3c(Cl)cc(-n4ncc(=O)[nH]c4=O)cc3Cl)no2)c1 [Compound 133] | 55% |  |
| Cc1ccnc(C)c1-c1nc(C(C)(C)c2c(Cl)cc(-n3ncc(=O)[nH]c3=O)cc2Cl)no1.ClCCl [Compound 151] | 74% |  |
| CC(C)(c1nc(-c2ccco2)cs1)c1c(Cl)cc(-n2ncc(=O)[nH]c2=O)cc1Cl [Compound 83, 2-[3,5-dichloro-4-[1-[4-(2-furanyl)-2-thiazolyl]-1-methylethyl]phenyl]-1,2,4-triazine-3,5(2H,4H)-dione] |  | 78% |
| Cc1sc(C(C)(C)c2c(Cl)cc(-n3ncc(=O)[nH]c3=O)cc2Cl)nc1-c1cccc(F)c1 [Compound 17] | 94% |  |
| CC(C)OC(=O)c1sc(C(C)(C)c2c(Cl)cc(-n3ncc(=O)[nH]c3=O)cc2Cl)nc1-c1ccccc1 [Compound 122] | 94% |  |
| Cc1ccsc1-c1csc(C(C)(C)c2c(Cl)cc(-n3ncc(=O)[nH]c3=O)cc2Cl)n1 [Compound 75] | 91% |  |
| CC(C)(c1noc(-c2ccccc2CO)n1)c1c(Cl)cc(-n2ncc(=O)[nH]c2=O)cc1Cl [Compound 155] | 85% |  |
| CC(C)(c1nc(-c2ccccc2)c(-c2cccc(O)c2)s1)c1c(Cl)cc(-n2ncc(=O)[nH]c2=O)cc1Cl [Compound 58, 2-[3,5-dichloro-4-[1-[5-(3-hydroxyphenyl)4-phenyl-2-thiazolyl]-1-methyl-ethyl]phenyl]-1,2,4-triazine-3,5(2H,4H)-dione] |  | 84% |
| 3-[2-[1-[2,6-dichloro-4-(4,5-dihydro-3,5-dioxo-1,2,4-triazin-2(3H)-yl)phenyl]-1-methylethyl-4-(2-chlorophenyl)-5-thiazolyl]-N-(2-methoxyethyl)-benzamide [Compound 63] | 38% |  |
| COc1cccc(-c2sc(C(C)(C)c3c(Cl)cc(-n4ncc(=O)[nH]c4=O)cc3Cl)nc2-c2ccccc2)c1 [Compound 55] | 92% |  |
| CC(C)(c1noc(-c2ccc(F)cc2)n1)c1c(Cl)cc(-n2ncc(=O)[nH]c2=O)cc1Cl [Compound 96] | 82% |  |
| CC(C)(c1nc(-c2ccccc2F)cs1)c1c(Cl)cc(-n2ncc(=O)[nH]c2=O)cc1Cl [Compound 11] | 88% |  |
| COc1ccccc1-c1csc(C(C)(C)c2c(Cl)cc(-n3ncc(=O)[nH]c3=O)cc2Cl)n1 [Compound 26] | 84% |  |
| CC(C)(c1nc(-c2cccnc2)cs1)c1c(Cl)cc(-n2ncc(=O)[nH]c2=O)cc1Cl [Compound 82] | 85% |  |
| CC(C)(c1nc(-c2ccccc2)c(-c2cccc(NC(=O)N3CCNCC3)c2)s1)c1c(Cl)cc(-n2ncc(=O)[nH]c2=O)cc1Cl [Compound 71, N-[3-[2-[1-[2,6-dichloro-4-(4,5-dihydro-3,5-dioxo-1,2,4-triazin-2(3H)-yl)phenyl]-1-methylethyl]-4-phenyl-5-thiazolyl]-phenyl]-1-piperazinecarboxamide monohydrate] |  | 27% |
| CC(C)(c1nc(-c2ccccc2)c(CCc2ccccc2)s1)c1c(Cl)cc(-n2ncc(=O)[nH]c2=O)cc1Cl [Compound 45] | 85% |  |
| CC(C)(c1nc(-c2ccccc2)c(-c2cccc(NS(N)(=O)=O)c2)s1)c1c(Cl)cc(-n2ncc(=O)[nH]c2=O)cc1Cl [Compound 60] | 28% |  |
| CC(C)(c1nc(-c2ccccc2)c(Cc2ccccc2)s1)c1c(Cl)cc(-n2ncc(=O)[nH]c2=O)cc1Cl [Compound 43, 2-[3,5-dichloro-4-[1-methyl-1-[4-phenyl-5-(phenylmethyl)-2-thiazolyl]ethyl]phenyl]-1,2,4-triazine-3,5(2H,4H)-dione] |  | 86% |
| CC(C)(c1nc(-c2cccc(Cl)c2)cs1)c1c(Cl)cc(-n2ncc(=O)[nH]c2=O)cc1Cl [Compound 8] | 85% |  |
| CC(C)(c1nc(-c2ccc([N+](=O)[O-])s2)cs1)c1c(Cl)cc(-n2ncc(=O)[nH]c2=O)cc1Cl [Compound 74] | 76% |  |
| CC(C)OC(=O)c1cccc(-c2sc(C(C)(C)c3c(Cl)cc(-n4ncc(=O)[nH]c4=O)cc3Cl)nc2-c2ccccc2Cl)c1 [Compound 65] | 36% |  |
